# Measurements: patent US8735584B2 (Merck Patent GmbH, priority 2008, dated 2014)
# Molecular target: T1, GST-Aurora A (Homo sapiens, UniProt O14965)
# T1 construct: N-terminal GST fusion with full length Aurora A (1-403 amino acids); purchased Carna Biosciences 05-101
# T1 sequence (O14965 1-403): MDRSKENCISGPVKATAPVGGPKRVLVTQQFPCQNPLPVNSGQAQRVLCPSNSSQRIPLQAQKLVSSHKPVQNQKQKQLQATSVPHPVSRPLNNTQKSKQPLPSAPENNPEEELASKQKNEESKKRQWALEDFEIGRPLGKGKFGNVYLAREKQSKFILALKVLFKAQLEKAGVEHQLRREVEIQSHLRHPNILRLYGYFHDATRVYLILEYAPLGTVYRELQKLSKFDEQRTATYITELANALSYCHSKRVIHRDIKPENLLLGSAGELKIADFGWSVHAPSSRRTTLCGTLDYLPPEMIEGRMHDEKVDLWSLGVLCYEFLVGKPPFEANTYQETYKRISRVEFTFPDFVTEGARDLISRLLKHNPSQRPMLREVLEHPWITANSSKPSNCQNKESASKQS
# Experiment: Aurora A IC50, Caliper LC3000 mobility shift assay
# Assay type: biochemical
# Conditions: LC3000 method; 15 uM ATP (the KM value); read-out: Aurora Kinase A Activity (IC50)
# Method in brief: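 Readout: percent conversion of FITC-LRRASLG (1 uM) to phosphopeptide, resolved electrophoretically on a Caliper LC3000, fitted against inhibitor concentration for IC50. Reaction: N-terminal GST full-length Aurora A, ATP at its KM (15 uM), pH 7.5 HEPES with MgCl2/DTT, 25 C for 90 min.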
compound,measurement,value
"O=c1[nH]c2ncccc2c2cc(Nc3cccc(F)c3)ccc12 [Example 31, 9-(3-Fluoro-phenylamino)-5H-benzo[c][1,8]naphthyridin-6-one]",IC50,> 100 nM
